Here are results for one molecule from PubChem BioAssay (NCI).

Test systems include UACC-62 melanoma; SF-539 CNS; NCI-H23 lung; MALME-3M melanoma; T-47D breast; A498 renal; SF-295 CNS; SK-MEL-2 melanoma; MCF7 breast; OVCAR-4 ovarian; EKVX NSCLC; OVCAR-3 ovarian; U251 CNS; MDA-MB-231 breast; CCRF-CEM leukemia; SW-620 colon; DU-145 prostate; HCT-15 colon; SF-268 CNS; ACHN renal.
What all share (experiment): growth of human tumour cells (NCI), 48 h

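Test compounds were applied to cells in 96-well plates for 48 hours at 5 doses. The concentration for full growth arrest is given as TGI.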

With `O=C1C=CC(=O)c2c1ccc1c3ccccc3n(-c3ccccc3)c21`, the TGI was 26.2 µM in the assay on UACC-62 melanoma; 29.7 µM in the assay with SF-539 CNS; 34.1 µM in the assay with NCI-H23 lung; 16.8 µM in the assay on MALME-3M melanoma; 4.78 µM in the assay on T-47D breast; 35.2 µM in the assay on A498 renal. The TGI in the assay with SF-295 CNS is 22.2 µM; in the assay with SK-MEL-2 melanoma it was 26.6 µM; in the assay with MCF7 breast it was greater than 100 µM; in the assay with OVCAR-4 ovarian, 27.2 µM; with EKVX NSCLC it was 28.7 µM; in the assay on OVCAR-3 ovarian, 21.9 µM. For the same molecule, the TGI with U251 CNS stood at 43.7 µM; with MDA-MB-231 breast, 15.9 µM; in the assay on CCRF-CEM leukemia, 1.94 µM; with SW-620 colon, 7.31 µM; in the assay on DU-145 prostate, 37.2 µM; in the assay with HCT-15 colon it was 10.7 µM. Also, the results for the TGI in the assay with SF-268 CNS and in the assay with ACHN renal were 40.9 µM and 11.1 µM, respectively.
